{"source": "patent EP1362591A1", "about": "“Use of a composition containing 5-androstene-3 beta, 17-alpha diol” (LORIA, Roger M., priority 1996, dated 1997)", "key": {"ZR-75-1 cells [1]": {"test_system": "ZR-75-1 cells", "assay": "Cell proliferation assay, tritiated thymidine incorporation", "type": "cell-based, human", "settings": "for cell proliferation: Example 1, six day period", "experimental": "The βAED, 17 beta-oestradiol and tamoxifen were obtained from Sigma Chemical Company (St. Louis, Missouri). The αAED and Flutamide were obtained from Steriloid, Inc. (Walton, New Hampshire) and Schering Corporation (Kenilworth, New Jersey), respectively. All steroids except βAED were dissolved in ethanol. βAED was dissolved in DMSO:ETHOL (1:1 v/v). Stock solutions were filtered and kept at 4°C. For testing, stock solutions were diluted in media immediately before use. The final concentration of vehicle was always ≤ 0.2% in all samples, and this concentration had no significant cytotoxic effect on the human breast cell cancer cell line designated ZR-75-1 (American Type Culture Collection) as determined by trypan blue exclusion.\nThe ZR-75-1 cell line (passage 89) was obtained from the American Type Culture Collection (Rockville, Maryland). The cells were cultured in RPMI-1640 medium containing 10% heat-inactivated fetal calf serum, 200 µM L-glutamine, […], 1.5 U/ml penicillin, and 1.5 µg/ml streptomycin in 5% CO2 at 37°C. The cells were passaged twice weekly.\n(§1) Cells were first seeded at initial density of 1x10^5 cells per ml in quadruplicates in 24 multi-well flat bottom plates (Costar). Cells were then allowed to adhere and grow in phenol red-free […] media supplemented with 10 % heat-inactivated fetal calf serum (FCS), 200 µM L-glutamine, 10 mM HEPES, 2.5 U/ml penicillin and 2.5 µg/ml streptomycin in 5% CO2 at 37°C. After 48 hours, four wells were sacrificed and counted to determine plating efficiency. In the remaining wells, medium was removed by aspiration and cells in each well were exposed to the media containing the specified steroid. The controls containing only medium or medium with vehicle were also prepared. In all samples, medium was changed every 48 hours. At the pre-established time-point. Cells were removed by trypsinization and washed. Cell number and viability were determined by trypan blue exclusion using a hemocytometer. Parallel cultures were also run to determine cell proliferation.\n(§2) For cell proliferation assays, cell suspensions were prepared by trypsinization of cells from cultures prepared in accord with methods described above. Cell viability was determined by trypan blue exclusion. The cells were then seeded in flat-bottom 96-well microtiter plates at a density of 2X10^3 cells/well and were allowed to rest for 48 hours in order to adhere. Non-adherent dead cells were removed by aspiration. Cells were then grown in media without phenol red. Some of the media contained supplements as indicated above. The active agents or vehicle control were added to the media. The cells were then grown for six days. Media was changed on the samples every 48 hours. On day 6, cells were pulsed with 1 µCi[…] for the last 6 hours of incubation before harvesting onto glass filter using a HPD cell harvester (Cambridge Technology, Watertown, Massachusetts) and counted on a KLB scintillation counter."}, "RAW 264.7": {"test_system": "RAW 264.7", "assay": "Proliferation of murine macrophage myeloma cells", "type": "cell-based", "settings": "Example 9", "experimental": "as §2\nEffects of αAED at doses of 50 ηM and 100 ηM doses on murine macrophage myeloma cells (RAW 264.7, obtained from the American Type Culture Collection) was studied."}, "P388D1 cells": {"test_system": "P388D1 cells", "assay": "Growth of lymphoid neoplasm cells in the presence of RU486", "type": "cell-based", "settings": "Example 8; RU486 at 0.5 µM and 1.0 µM", "experimental": "as §2\nEffect of αAED on growth of lymphoid neoplasm (P388D1 cells obtained from the American Type Culture Collection) in the presence of RU486 at concentration of 0.5 µM and 1.0 µM was studied in accord with the methods described above."}, "ZR-75-1 cells [2]": {"test_system": "ZR-75-1 cells", "assay": "Cell count and viability by trypan blue exclusion", "type": "cell-based, human", "experimental": "as §1\nInitial tests were carried out to determine the optimal (maximal) dose of αAED required to inhibit growth of the ZR-75-1 cells in in vitro as determined by tritiated tymidine incorporation. […] To ensure that inhibition was not due to cytotoxicity, cell count and viability were assessed by trypan blue exclusion."}}, "note": "pIC50: −log10 of the molar value.", "data": [{"smiles": "C[C@]12CC[C@H]3[C@@H](CC=C4C[C@@H](O)CC[C@@]43C)[C@@H]1CC[C@@H]2O", "note": "[βAED, 5-androstene 3ß,17ß diol, reference compound]", "values": [{"measurement": "antiproliferative effect on the growth of ZR-75-1 cells", "setting": "ZR-75-1 cells [1]; alone at 100 ηM", "result": "did not have any antiproliferative effect"}]}, {"smiles": "C[C@]12CC[C@H]3[C@@H](CC=C4C[C@@H](O)CC[C@@]43C)[C@@H]1CC[C@H]2O", "note": "[αAED, 5-androstene 3ß,17α diol]", "values": [{"measurement": "proliferation", "setting": "RAW 264.7; 50 ηM", "result": "significant inhibition of proliferation"}, {"measurement": "proliferation", "setting": "RAW 264.7; 100 ηM", "result": "significant inhibition of proliferation"}, {"measurement": "growth of lymphoid neoplasm in combination with RU486", "setting": "P388D1 cells", "result": "increased effectiveness over use of one agent"}, {"measurement": "cell proliferation", "setting": "ZR-75-1 cells [1]; 6.25 ηM", "result": "increasing proliferation"}, {"measurement": "cell proliferation", "setting": "ZR-75-1 cells [1]; 25 ηM", "result": "decreasing cell proliferation"}, {"measurement": "cell proliferation", "setting": "ZR-75-1 cells [1]; 50 ηM", "result": "marked decrease"}, {"measurement": "proliferation of cells in the presence of βAED", "setting": "ZR-75-1 cells [1]; Example 2, varied αAED with βAED constant at 2.5 ηM", "result": "decreased proliferation at all concentrations"}, {"measurement": "proliferation in the presence of estradiol", "setting": "ZR-75-1 cells [1]; Example 3, higher doses of αAED with 1 ηM estradiol, 6 day period", "result": "suppressed proliferation even in the presence of estradiol"}, {"measurement": "antiproliferative effects in the presence of Flutamide", "setting": "ZR-75-1 cells [1]; Example 4, ≥6.25 ηM αAED", "result": "greatly enhanced"}, {"measurement": "synergism with RU486", "setting": "ZR-75-1 cells [1]; Example 5, RU486 1 µM", "result": "even greater"}, {"measurement": "proliferation of cells in the presence of RU486", "setting": "ZR-75-1 cells [1]; Example 5, concentrations of αAED with 0.5 µM RU486", "result": "synergistic action to decrease proliferation of cells"}, {"measurement": "pIC50", "setting": "ZR-75-1 cells [1]; Homo sapiens, dose and time-dependent inhibition of ZR-75-1 growth, read-out: half-maximal dose (anti-proliferative effect)", "result": 7.30}, {"measurement": "growth of ZR-75-1 cells", "setting": "ZR-75-1 cells [1]; concentration of 25 ηM or greater", "result": "significantly inhibited the growth"}, {"measurement": "proliferation of ZR-75-1 cells", "setting": "ZR-75-1 cells [1]; concentrations between 6.25 and 12.5 ηM, P<0.01 vs vehicle control", "result": "stimulated proliferation"}, {"measurement": "maximal dose (anti-proliferative effect)", "setting": "ZR-75-1 cells [1]; dose and time-dependent inhibition of ZR-75-1 growth", "result": "100 ηM"}, {"measurement": "effect on the growth of cells", "setting": "ZR-75-1 cells [1]; doses ranging from 3.13 ηM to 50 ηM, compared to vehicle control after 6 days", "result": "biphasic effect"}, {"measurement": "cytotoxicity (cell count and viability)", "setting": "ZR-75-1 cells [2]", "result": "not toxic to the cells"}]}]}
